Measured values: patent publication US4412996A, “Pyridoxine derivatives and related pharmaceutical compositions” (Crinos Farmacologica Spa, priority 1980, dated 1983)
Structures can show the parent of a compound that is named as a salt. Where two headings read alike, the source gives them in different places.

Tests used:
rat [1] = experiment: Acute toxicity in the rat (method of Litchfield and Wilcoxon); conditions: in vivo, po
Description: (§1) In the following resuming table the results obtained for the esters of the Indomethacin are reported. In the determination of the acute toxicity, carried out in the rat, the method of Litchfield and Wilcoxon (J. Pharmacol. Exp. Therm., 96, 99, 1949) has been adopted.

[2] = Anti-inflammatory activity, carrageenin induced oedema (Winter et al.); assay type: in vivo, rat; conditions: rat, in vivo; carrageenin 3 h; read-out: Therapeutical index LD50/ED50 (carrageenin 3h)
Description: (§2) As regards the anti-inflammatory activity, the ED50 in the normal rat has been evaluated according to Winter et al. (Proc. Soc. Exp. Biol. Med., 111, 544, 1962).

rat [3] = experiment: as above; assay type: in vivo; conditions: 3 h; for Carrageenin induced oedema (3 h) ED50: 180 min; for ED50: Rattus norvegicus, po, read-out: Carrageenin induced oedema (3 h) ED50
Description: as §2

[4] = Analgesic activity (method of Randall and Selitto); assay type: in vivo; conditions: for selectivity ratio: in vivo, Randall-Selitto 3 h, read-out: Therapeutical index LD50/ED50 (Randall-Selitto 3h); for ED50: po, read-out: Randall-Selitto (3 h) ED50
Description: As regards the analgesic activity, the evaluation has been carried out according to the method of Randall and Selitto (Arch. Ing. Pharmacodyn., 111, 409, […]).

rat [5] = experiment: Ulcerogenic activity / gastric tolerability, UD50 in fasted rats; assay type: in vivo; conditions: for Gastric tolerability UD50 fasted 18 h / Gastric tolerability UD50 fasted 48 h: rat, in vivo, po
Description: (§3) The UD50 has been also calculated according to the aforesaid method of Litchfield and Wilcoxon.

[6] = Solubility of the product; assay type: physicochemical
[7] = Acute toxicity in the rat (method of Litchfield and Wilcoxon); conditions: in vivo, po
Description: as §1

[8] = Ulcerogenic activity / gastric tolerability, UD50 in fasted rats; assay type: in vivo, rat; conditions: rat, in vivo, po
Description: as §3

[9] = UD50 18 h, Randall-Selitto 3 h, read-out: Tolerability index UD50 (18h)/ED50 (Randall-Selitto 3 H)
[10] = UD50 18 h, carrageenin 3 h, read-out: Tolerability index UD50 (18 h)/ED50 (carrageenin 3 h)
[11] = UD50 48 h, Randall-Selitto 3 h, read-out: Tolerability index UD50 (48 h)/ED50 (Randall-Selitto 3 h)
[12] = UD50 48 h, carrageenin 3 h, read-out: Tolerability index UD50 (48 h)/ED50 (carrageenin 3 h)

Compound	LD50, rat (rat [1])	selectivity ratio [2]	Carrageenin induced oedema (3 h) ED50 (rat [3]; normal rat, per os)	selectivity ratio [4]	Tolerability index UD50 (18h)/ED50 (Randall-Selitto 3 H) (rat [5]; UD50 18 h)	Tolerability index UD50 (48 h)/ED50 (Randall-Selitto 3 h) (rat [5]; UD50 48 h)	Gastric tolerability UD50 fasted 18 h (rat [5])	Gastric tolerability UD50 fasted 48 h (rat [5])	ED50 ([4]; 3 h, per os)	selectivity ratio [8, 9]	selectivity ratio [8, 10]	selectivity ratio [8, 11]	selectivity ratio [8, 12]	other results
COc1ccc2c(c1)c(CC(=O)OCc1cnc(C)c3c1COC(C)(C)O3)c(C)n2C(=O)c1ccc(Cl)cc1 [compound ex. 1(b), Hydrochloride of the (3,4-isopropylidene)-pyridoxine ester of 1-(p-chlorobenzoyl)-2-methyl-5-methoxy-indol-3-acetic acid]	85 mg/kg	8.39	10.13 mg/kg/os	31.9	12.59	8.45	33.50	22.50						Randall-Selitto (3 h) ED50 ([4]; 3 h, per os, 180 min): 2.66 mg/kg/os; Tolerability index UD50 (18 h)/ED50 (carrageenin 3 h) (rat [5]; UD50 18 h, carrageenin 3 h): 3.30; Tolerability index UD50 (48 h)/ED50 (carrageenin 3 h) (rat [5]; UD50 48 h, carrageenin 3 h): 2.22; solubility in cold chloroform ([6]; cold chloroform): soluble; solubility in hot N,N'-dimethylformamide ([6]; hot N,N'-dimethylformamide): poorly soluble; solubility in hot ethanol ([6]; hot ethanol): soluble; solubility in water ([6]; water): insoluble
COc1ccc2c(c1)c(CC(=O)OCc1cnc(C)c(O)c1CO)c(C)n2C(=O)c1ccc(Cl)cc1 [compound ex. 2, Pyridoxine ester of 1-(p-chlorobenzoyl)-2-methyl-5-methoxy-indol-3-acetic acid]									3.37 mg/kg	157	6.97	84.6	3.75	mortality ([7]; 819 mg/kg, read-out: LD50, rat line: percent at 819 mg/kg): 62.5%; ED50 (rat [3]; normal rat, per os): 76 mg/kg; TD50 at 18 h ([8]; Gastric tolerability UD50 fasted 18 h): 530 mg/kg; TD50 at 48 h ([8]; Gastric tolerability UD50 fasted 48 h): 285 mg/kg
COc1ccc2c(c1)c(CC(=O)OCc1cnc(C)c3c1COC(C)(C)O3)c(C)n2C(=O)c1ccc(Cl)cc1 [compound ex. 1(c), (3,4-isopropylidene)-pyridoxine ester of 1-(p-chlorobenzoyl)-2-methyl-5-methoxy-indol-3-acetic acid]	> 200 mg/kg		36.83 mg/kg/os		78.51	51.85	212.00	140.00	2.7 mg/kg		5.75		3.8	
COc1ccc2c(c1)c(CC(=O)O)c(C)n2C(=O)c1ccc(Cl)cc1 [Indomethacin, 1-(p-chlorobenzoyl)-2-methyl-5-methoxy-indol-3-acetic acid, reference compound]		4.77		15.8						5.18	1.57	2.59	0.78	LD50 ([7]; per os (head: mg/kg/os), * = insufficient sample): 21 mg/kg; ED50 (rat [3]): 4.4 mg/kg; ED50 ([4]; 3 h): 1.33 mg/kg; TD50 at 18 h ([8]; fasted rats, per os, 18 h, read-out: Gastric tolerability UD50 fasted 18 h): 6.9 mg/kg; TD50 at 48 h ([8]; fasted rats, per os, 48 h, read-out: Gastric tolerability UD50 fasted 48 h): 3.45 mg/kg
